According to patent US9815847B2 (Icahn School of Medicine at Mount Sinai, priority 2013, dated 2017):

Columns and labels:
[1] = tested on: DU145; assay: Cytotoxicity on DU145 cancer cell line; type: cell-based; details: Homo sapiens, DU-145; DU145 prostate cancer; 96 h; 0.01-100 μM
Summary of the method: (§1)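 K562 (Bcr-Abl-positive leukaemia) or DU145 prostate cells, 2.5×10^4 per well, dosed 24 h after plating with compound in DMSO at 0.01–100 μM. Assessed 96 h later by microscopic observation and, where needed, viable counts by trypan blue exclusion.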

[2] = biological target: T1, ABL1 (G250E) (Homo sapiens, UniProt P00519, G250E); assay: Inhibition of ABL mutants, kinase assay; type: biochemical; details: 10 μM ATP; 5-dose IC50 mode
T1 construct: purchased Reaction Biology Corporation
Procedure: (§2) Kinase assays were performed at Reaction Biology Corporation. To a freshly prepared buffer solution was added the target kinase at a concentration of […]. The contents were mixed gently, and then compound (8h) dissolved in DMSO was added to the reaction mixture in the appropriate concentration. The mixture was incubated at room temperature for 30 min. prior to addition of ATP to initiate the reaction. Compound (8h) was tested in a 5-dose IC50 mode with 10-fold serial dilutions starting at 10 μM. Staurosporine was used as a control compound in a 10-dose IC50 mode with 3-fold serial dilutions starting at 20 μM. Reaction was carried out at 10 μM ATP concentration.

[3] = biological target: T2, ABL1 (Y253F) (Homo sapiens, UniProt P00519, Y253F); assay: Inhibition of ABL mutants, kinase assay; type: biochemical; details: 10 μM ATP; 5-dose IC50 mode
T2 construct: purchased Reaction Biology Corporation
Procedure: as §2

[4] = biological target: T3, ABL1 (E255K) (Homo sapiens, UniProt P00519, E255K); assay: Inhibition of ABL mutants, kinase assay; type: biochemical; details: 10 μM ATP; 5-dose IC50 mode
T3 construct: purchased Reaction Biology Corporation
Procedure: as §2

[5] = biological target: T4, ABL1 (H396P) (Homo sapiens, UniProt P00519, H396P); assay: Inhibition of ABL mutants, kinase assay; type: biochemical; details: 10 μM ATP; 5-dose IC50 mode
T4 construct: purchased Reaction Biology Corporation
Procedure: as §2

[6] = biological target: T5, ABL1 (Q252H) (Homo sapiens, UniProt P00519, Q252H); assay: Inhibition of ABL mutants, kinase assay; type: biochemical; details: 10 μM ATP; 5-dose IC50 mode
T5 construct: purchased Reaction Biology Corporation
Procedure: as §2

[7] = biological target: T6, ABL1 (M351T) (Homo sapiens, UniProt P00519, M351T); assay: Inhibition of ABL mutants, kinase assay; type: biochemical; details: 10 μM ATP; 5-dose IC50 mode
T6 construct: purchased Reaction Biology Corporation
Procedure: as §2

[8] = biological target: T7, ABL2/ARG (Homo sapiens, UniProt P42684); assay: Inhibition of ABL mutants, kinase assay; type: biochemical; details: 10 μM ATP; 5-dose IC50 mode
T7 construct: purchased Reaction Biology Corporation
Procedure: as §2

[9] = biological target: T8, ABL1 (T315I) (Homo sapiens, UniProt P00519, T315I); assay: Inhibition of ABL mutants, kinase assay; type: biochemical; details: 10 μM ATP; 5-dose IC50 mode
T8 construct: purchased Reaction Biology Corporation
Procedure: as §2

[10] = tested on: K562; assay: Cytotoxicity on K562 cancer cell line; type: cell-based; details: Homo sapiens; K562 chronic myelogenous leukemia; 96 h; 0.01-100 μM
Summary of the method: as §1

T7 sequence (P42684 whole entry): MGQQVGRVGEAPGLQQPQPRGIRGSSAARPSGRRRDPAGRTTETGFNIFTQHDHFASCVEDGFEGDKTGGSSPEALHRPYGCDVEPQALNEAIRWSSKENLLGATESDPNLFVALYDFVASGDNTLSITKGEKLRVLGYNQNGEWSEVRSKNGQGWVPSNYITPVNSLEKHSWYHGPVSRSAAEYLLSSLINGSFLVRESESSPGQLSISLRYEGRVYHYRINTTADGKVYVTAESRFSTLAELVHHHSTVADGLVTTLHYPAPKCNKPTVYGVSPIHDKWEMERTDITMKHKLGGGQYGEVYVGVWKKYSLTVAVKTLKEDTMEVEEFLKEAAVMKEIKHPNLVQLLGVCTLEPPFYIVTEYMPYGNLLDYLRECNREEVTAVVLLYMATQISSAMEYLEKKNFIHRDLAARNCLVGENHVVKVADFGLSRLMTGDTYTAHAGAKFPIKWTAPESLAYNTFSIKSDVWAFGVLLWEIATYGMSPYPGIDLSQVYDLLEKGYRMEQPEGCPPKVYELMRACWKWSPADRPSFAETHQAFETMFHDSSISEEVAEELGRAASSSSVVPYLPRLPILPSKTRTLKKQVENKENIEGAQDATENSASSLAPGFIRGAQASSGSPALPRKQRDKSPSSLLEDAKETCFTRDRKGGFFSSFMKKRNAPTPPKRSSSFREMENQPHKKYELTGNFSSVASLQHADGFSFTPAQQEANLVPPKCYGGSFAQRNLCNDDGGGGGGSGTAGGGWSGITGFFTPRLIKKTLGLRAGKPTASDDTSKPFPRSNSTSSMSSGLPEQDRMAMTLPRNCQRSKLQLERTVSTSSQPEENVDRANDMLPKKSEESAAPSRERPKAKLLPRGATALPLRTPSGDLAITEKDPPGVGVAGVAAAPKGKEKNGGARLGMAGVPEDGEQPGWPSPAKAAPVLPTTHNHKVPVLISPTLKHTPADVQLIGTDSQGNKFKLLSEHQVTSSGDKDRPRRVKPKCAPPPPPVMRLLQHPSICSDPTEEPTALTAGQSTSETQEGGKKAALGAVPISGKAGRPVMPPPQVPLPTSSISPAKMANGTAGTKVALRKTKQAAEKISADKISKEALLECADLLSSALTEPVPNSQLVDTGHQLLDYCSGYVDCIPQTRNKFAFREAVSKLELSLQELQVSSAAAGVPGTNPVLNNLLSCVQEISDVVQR

IC50 [2]: < 100 nM
IC50 [3]: < 100 nM
IC50 [4]: < 100 nM
IC50 [5]: < 100 nM
IC50 [6]: < 100 nM
IC50 [7]: < 100 nM
IC50 [8]: < 100 nM
IC50 [9]: < 100 nM
SMILES: CN1CCN(c2ccc(Nc3ncc(/C=C/C#N)c(NC4CCCC4)n3)cc2)CC1 [Compound 8h, 3-{4-Cyclopentylamino-2-[4-(4-methylpiperazin-1-yl)phenylamino]pyrimidin-5-yl}acrylonitrile]
IC50 [1]: < 1000 nM
IC50 [10]: < 1000 nM
